Laboratory results reported in US10955352B2, “Method for assessing a state of a living cell” (Agency for Science, Technology and Research, priority 2016, dated 2021).

Test system: HeLa cells
Test: SERS detection and quantification of sialic acid on single living HeLa cells with DBA tag (HC-PCF)
Format: cell-based
Procedure: HeLa cells were cultured in Dulbecco's modified eagle medium (DMEM) with 1% penicillin streptomycin (Gibco) and 10% fetal bovine serum (Gibco) in the dark with 5% CO2 and 37° C. until they were confluent. The cells were then harvested by adding 1×EDTA trypsin of appropriate volume for 4 min, followed by addition of DMEM of double that volume to neutralize the trypsin. The harvested cells were centrifuged at 1,500 rpm for 3 mins. The supernatant was removed and the cells were suspended with DMEM to achieve a cell concentration of 5000 cells/ml. Two milliliter of cell suspension was seeded per well in a six-well plate and allowed to grow for 48 hours.
After incubation, DMEM was removed from each well and the adhered cells were rinsed lightly with 1×PBS which was subsequently removed. Four wells were used in our experiment. In order to reduce the probability of DBA binding onto sites of sialic acid on the surface of the cell membrane, thus mimicking a cell with lowered sialic acid level, 10 mM of phenyl-boronic acid (PBA) (Sigma Aldrich) dissolved in DMEM and 1% DMSO (Merck Millipore) were added to one well (Well A) and left to incubate for 24 hours. […]
Post-incubation washing was performed for all the wells and 10 mM of DBA (Sigma Aldrich) dissolved in DMEM and 1% DMSO was added into wells A, B and C, with incubation time of 4 hours. […] Supernatant were removed after centrifugation and the cells are ready for SERS sample preparation. […]
SERS spectra were recorded using a Raman microscope system (Renishaw InVia) with a 633 nm excitation laser and equipped with a grating (spectral resolution of about 1.8 cm^−1). […]
In order to calculate the amount of sialic acid on cell for Sialic acid and (+)Sialic acid samples, intensity of the 2,000 cm^−1 peak was obtained from the SERS measurement (FIG. 10A). […] The number of sialic acid molecules may be quantified by estimating the amount of DBA molecules from the trend line as the binding between DBA molecule to the sialic acid molecule is one by one. […]

Structure (SMILES) | calculated sialic acid amount on a single HeLa cell (5 μM prednisolone 72 hours, then 10 mM DBA 4 hours, estimated from DBA calibration curve of 2,000 cm^-1 peak) | intensity at 2,000 cm^-1 (DBA alkyne peak, sialic acid expression) versus positive control (HeLa cells, 5 μM prednisolone 72 hours, then DBA) | 2,000 cm^-1 peak in Raman spectrum (DBA binding to sialic acid) after pre-treatment (HeLa cells, 10 mM PBA 24 hours, then 10 mM DBA 4 hours)
C[C@]12C=CC(=O)C=C1CC[C@@H]1[C@@H]2[C@@H](O)C[C@@]2(C)[C@H]1CC[C@]2(O)C(=O)CO [prednisolone] | 6.782 fmol | higher than that of the positive control | –
OB(O)c1ccccc1 [PBA, phenyl-boronic acid] | – | – | negligible presence of that peak
